According to ChEMBL document CHEMBL4004803, “Syntheses and antibacterial activity of soluble 9-bromo substituted indolizinoquinoline-5,12-dione derivatives” (Eur J Med Chem, 2017):

Columns and labels:
Format in all cases: functional
Staphylococcus aureus [1] = assay: Antibacterial activity against methicillin-resistant Staphylococcus aureus 10281-2 clinical isolate after 20 to 24 hrs by two-fold microdilution method
Staphylococcus aureus [2] = assay: Antibacterial activity against methicillin-resistant Staphylococcus aureus 1216052 clinical isolate after 20 to 24 hrs by two-fold microdilution method
Staphylococcus aureus [3] = assay: Antibacterial activity against methicillin-resistant Staphylococcus aureus 20106-2 clinical isolate after 20 to 24 hrs by two-fold microdilution method
Staphylococcus aureus [4] = assay: Antibacterial activity against methicillin-resistant Staphylococcus aureus 110834 clinical isolate after 20 to 24 hrs by two-fold microdilution method
Staphylococcus aureus [5] = assay: Antibacterial activity against methicillin-resistant Staphylococcus aureus 131215 clinical isolate after 20 to 24 hrs by two-fold microdilution method
Staphylococcus aureus [6] = assay: Antibacterial activity against methicillin-resistant Staphylococcus aureus 831024 clinical isolate after 20 to 24 hrs by two-fold microdilution method
Staphylococcus aureus [7] = assay: Antibacterial activity against methicillin-resistant Staphylococcus aureus 121969 clinical isolate after 20 to 24 hrs by two-fold microdilution method
Staphylococcus aureus [8] = assay: Antibacterial activity against methicillin-resistant Staphylococcus aureus 1024004-2 clinical isolate after 20 to 24 hrs by two-fold microdilution method
Staphylococcus aureus [9] = assay: Antibacterial activity against methicillin-resistant Staphylococcus aureus 110432 clinical isolate after 20 to 24 hrs by two-fold microdilution method
Staphylococcus aureus [10] = assay: Antibacterial activity against methicillin-resistant Staphylococcus aureus 20339 clinical isolate after 20 to 24 hrs by two-fold microdilution method
Staphylococcus aureus [11] = assay: Antibacterial activity against methicillin-resistant Staphylococcus aureus 112106 clinical isolate after 20 to 24 hrs by two-fold microdilution method
Staphylococcus aureus [12] = assay: Antibacterial activity against methicillin-resistant Staphylococcus aureus 822030 clinical isolate after 20 to 24 hrs by two-fold microdilution method
Staphylococcus aureus [13] = assay: Antibacterial activity against methicillin-resistant Staphylococcus aureus 202045 clinical isolate after 20 to 24 hrs by two-fold microdilution method
Staphylococcus aureus [14] = assay: Antibacterial activity against methicillin-resistant Staphylococcus aureus 10844 clinical isolate after 20 to 24 hrs by two-fold microdilution method
Staphylococcus aureus [15] = assay: Antibacterial activity against methicillin-resistant Staphylococcus aureus 921026 clinical isolate after 20 to 24 hrs by two-fold microdilution method
Staphylococcus aureus [16] = assay: Antibacterial activity against methicillin-resistant Staphylococcus aureus 1113041 clinical isolate after 20 to 24 hrs by two-fold microdilution method
Streptococcus pyogenes = assay: Antibacterial activity against Streptococcus pyogenes ATCC 19615 after 20 to 24 hrs by two-fold microdilution method
Staphylococcus aureus [17] = assay: Antibacterial activity against methicillin-resistant Staphylococcus aureus 614019 clinical isolate after 20 to 24 hrs by two-fold microdilution method
Staphylococcus aureus [18] = assay: Antibacterial activity against methicillin-resistant Staphylococcus aureus 531220 clinical isolate after 20 to 24 hrs by two-fold microdilution method
Staphylococcus aureus [19] = assay: Antibacterial activity against methicillin-resistant Staphylococcus aureus GLH14 clinical isolate after 20 to 24 hrs by two-fold microdilution method
Staphylococcus aureus [20] = assay: Antibacterial activity against methicillin-resistant Staphylococcus aureus 118038 clinical isolate after 20 to 24 hrs by two-fold microdilution method
Staphylococcus aureus [21] = assay: Antibacterial activity against methicillin-resistant Staphylococcus aureus 110328-1 clinical isolate after 20 to 24 hrs by two-fold microdilution method
Staphylococcus aureus [22] = assay: Antibacterial activity against methicillin-resistant Staphylococcus aureus GLH15 clinical isolate after 20 to 24 hrs by two-fold microdilution method
Staphylococcus aureus [23] = assay: Antibacterial activity against methicillin-resistant Staphylococcus aureus 122820-2 clinical isolate after 20 to 24 hrs by two-fold microdilution method
Staphylococcus aureus [24] = assay: Antibacterial activity against methicillin-resistant Staphylococcus aureus 122710-2 clinical isolate after 20 to 24 hrs by two-fold microdilution method
Staphylococcus aureus [25] = assay: Antibacterial activity against methicillin-resistant Staphylococcus aureus 1026021 clinical isolate after 20 to 24 hrs by two-fold microdilution method
Staphylococcus aureus [26] = assay: Antibacterial activity against methicillin-resistant Staphylococcus aureus 304243 clinical isolate after 20 to 24 hrs by two-fold microdilution method
Staphylococcus aureus [27] = assay: Antibacterial activity against methicillin-resistant Staphylococcus aureus 102849 clinical isolate after 20 to 24 hrs by two-fold microdilution method
Staphylococcus aureus [28] = assay: Antibacterial activity against methicillin-resistant Staphylococcus aureus 414244 clinical isolate after 20 to 24 hrs by two-fold microdilution method
Staphylococcus aureus [29] = assay: Antibacterial activity against methicillin-resistant Staphylococcus aureus 120827 clinical isolate after 20 to 24 hrs by two-fold microdilution method
Staphylococcus aureus [30] = assay: Antibacterial activity against […] Staphylococcus aureus ATCC 25923 after 20 to 24 hrs by two-fold microdilution method
Staphylococcus aureus [31] = assay: Antibacterial activity against methicillin-resistant Staphylococcus aureus 221014 clinical isolate after 20 to 24 hrs by two-fold microdilution method
Staphylococcus aureus [32] = assay: Antibacterial activity against methicillin-resistant Staphylococcus aureus 908046 clinical isolate after 20 to 24 hrs by two-fold microdilution method
Staphylococcus aureus [33] = assay: Antibacterial activity against methicillin-resistant Staphylococcus aureus 111423 clinical isolate after 20 to 24 hrs by two-fold microdilution method
Staphylococcus aureus [34] = assay: Antibacterial activity against methicillin-resistant Staphylococcus aureus 1029025 clinical isolate after 20 to 24 hrs by two-fold microdilution method
Staphylococcus aureus [35] = assay: Antibacterial activity against methicillin-resistant Staphylococcus aureus 1107027 clinical isolate after 20 to 24 hrs by two-fold microdilution method
Staphylococcus aureus [36] = assay: Antibacterial activity against methicillin-resistant Staphylococcus aureus 123152 clinical isolate after 20 to 24 hrs by two-fold microdilution method
Staphylococcus aureus [37] = assay: Antibacterial activity against methicillin-resistant Staphylococcus aureus 1108204 clinical isolate after 20 to 24 hrs by two-fold microdilution method
Staphylococcus aureus [38] = assay: Antibacterial activity against methicillin-resistant Staphylococcus aureus 1012029 clinical isolate after 20 to 24 hrs by two-fold microdilution method
Staphylococcus aureus [39] = assay: Antibacterial activity against methicillin-resistant Staphylococcus aureus 121026 clinical isolate after 20 to 24 hrs by two-fold microdilution method
Staphylococcus aureus [40] = assay: Antibacterial activity against methicillin-resistant Staphylococcus aureus 1023043 clinical isolate after 20 to 24 hrs by two-fold microdilution method
Staphylococcus aureus [41] = assay: Antibacterial activity against methicillin-resistant Staphylococcus aureus 503025 clinical isolate after 20 to 24 hrs by two-fold microdilution method
Staphylococcus aureus [42] = assay: Antibacterial activity against methicillin-resistant Staphylococcus aureus clinical isolate after 20 to 24 hrs by two-fold microdilution method
Staphylococcus aureus [43] = assay: Antibacterial activity against methicillin-resistant Staphylococcus aureus 829034 clinical isolate after 20 to 24 hrs by two-fold microdilution method
Staphylococcus aureus [44] = assay: Antibacterial activity against methicillin-resistant Staphylococcus aureus 111625 clinical isolate after 20 to 24 hrs by two-fold microdilution method
Staphylococcus aureus [45] = assay: Antibacterial activity against methicillin-resistant Staphylococcus aureus 109016 clinical isolate after 20 to 24 hrs by two-fold microdilution method
Staphylococcus aureus [46] = assay: Antibacterial activity against methicillin-resistant Staphylococcus aureus 221022 clinical isolate after 20 to 24 hrs by two-fold microdilution method

O=C1c2cccnc2C(=O)c2c1c(C(=O)OCCCCN1CCOCC1)c1ccc(Br)cn21
16 µg/mL: MIC (Staphylococcus aureus [25])
≤ 0.0078 µg/mL: MIC (Staphylococcus aureus [21])
0.5 µg/mL: MIC (Staphylococcus aureus [1]) | MIC (Staphylococcus aureus [3]) | MIC (Staphylococcus aureus [6]) | MIC (Staphylococcus aureus [8]) | MIC (Staphylococcus aureus [10]) | MIC (Staphylococcus aureus [11]) | MIC (Staphylococcus aureus [12]) | MIC (Staphylococcus aureus [14]) | MIC (Staphylococcus aureus [15]) | MIC (Staphylococcus aureus [16]) | MIC (Staphylococcus aureus [17]) | MIC (Staphylococcus aureus [19]) | MIC (Staphylococcus aureus [20]) | MIC (Staphylococcus aureus [27]) | MIC (Staphylococcus aureus [34]) | MIC (Staphylococcus aureus [37]) | MIC50 (Staphylococcus aureus [42]) | MIC (Staphylococcus aureus [43]) | MIC (Staphylococcus aureus [44]) | MIC (Staphylococcus aureus [45]) | MIC (Staphylococcus aureus [46])
0.25 µg/mL: MIC (Staphylococcus aureus [4]) | MIC (Staphylococcus aureus [9]) | MIC (Staphylococcus aureus [13]) | MIC (Staphylococcus aureus [18]) | MIC (Staphylococcus aureus [22]) | MIC (Staphylococcus aureus [24]) | MIC (Staphylococcus aureus [29]) | MIC (Staphylococcus aureus [35]) | MIC (Staphylococcus aureus [36]) | MIC (Staphylococcus aureus [38]) | MIC (Staphylococcus aureus [39]) | MIC (Staphylococcus aureus [40])
0.063 µg/mL: MIC (Staphylococcus aureus [30])
1 µg/mL: MIC (Staphylococcus aureus [7]) | MIC (Staphylococcus aureus [28]) | MIC (Staphylococcus aureus [31]) | MIC (Staphylococcus aureus [41]) | MIC90 (Staphylococcus aureus [42])
8 µg/mL: MIC (Staphylococcus aureus [2]) | MIC (Staphylococcus aureus [33])
0.125 µg/mL: MIC (Staphylococcus aureus [5]) | MIC (Staphylococcus aureus [23]) | MIC (Staphylococcus aureus [26]) | MIC (Staphylococcus aureus [32])
4 µg/mL: MIC (Streptococcus pyogenes)
